Data: patent US8951988B2, “Azidothymidine quinoline conjugated compound, preparation method therefor and application thereof in anti-hepatoma therapy” (Huazhong University of Science and Technology, priority 2012, dated 2015)
Where “and” joins values, the source holds several entries; their conditions need not be identical. Equal entries are not always repeated.

Tests used:
[1] = system: normal human liver cells HL-7702; experiment: MTT cell viability assay, HL-7702; details: MTT after 72 hours
Method: (§1) Cell culture: cancer cell lines HepG2 and Hep3B are obtained from ATCC (VA, USA), Human liver cells HL-7702 and murine liver cancer cells H22 are obtained from Shanghai Institute of Life Science Cell Culture Center (Shanghai, China). All the cells are maintained in high glucose DMEM or RPMI-1640 medium (Invitrogen, GA, USA) supplemented with 10% heat-inactivated fetal bovine serum (FBS), 25 mM HEPES, 2 mM L-glutamine, 0.1 mM nonessential amino acids, 1.0 mM sodium pyruvate, 50 U/mL penicillin, and 50 ug/ml streptomycin at 37° C. and 5% CO2.
(§2) Methods of cell viability assay: liver cells are seeded on 96-well plates, AZT-QX, Zidovudine, quinoline piperazine derivatives and doxorubicin are added in respectively, the concentration thereof are from 1 nM to […]. After 72 hours, an MTT assay is carried out to determine the cell viability [See method in: Zhou, et al. Chem. Res. Toxicol. 2008, 21, 732-738.].
(§3) Selective biological activity of AZT-QX is assessed using cell viability assays MTT on human liver carcinoma cells with hepatitis B Hep3B, hepatoblastoma cell line HepG2 and normal human liver cells HL-7702 (FIG. 3).
(§4) FIG. 3 illustrates determined cell viability of Hep3B hepatoma cells with hepatitis B, a HepG2 hepatoblastoma cell line and HL-7702 normal […] treated with AZT-QX (FIG. 3a), doxorubicin (FIG. 3b), Pip-QX (FIG. 3c), and Zidovudine (FIG. 3d).

[2] = system: normal liver cells HL-7702; experiment: anti-BrdU fluorescence assay of nucleic acid synthesis, normal liver cells; type: cell-based, human
Source text: (§5) The anti-BrdU fluorescence assay is used to determine the nucleic acid synthesis in cells (FIG. 4).
(§6) FIG. 4 illustrates fluorescence images of an anti-BrdU assay of nucleic acid synthesis in cells. As shown in the figure, the green fluorescence illustrates the nucleic acid synthesis in cells, and the blue fluorescence illustrates the nuclear staining.

[3] = body weight of mice in the H22 liver tumor model; details: individual mice, 50 μM 100 μl on day 1 and day 7, in g (unit assumed)
Source text: Animal groups and drug administration: mice are divided into 3 groups once tumors reach an average size of 8.8×8.8 mm.

[4] = system: human liver carcinoma cells with hepatitis B Hep3B; experiment: MTT cell viability assay, Hep3B; type: cell-based
Method: as §1, §2, §3, §4

H22 liver cancer cells = experiment: subcutaneous H22 liver tumor model in mice, tumor size and volume; type: in vivo, BALB/c mice; details: for volume: individual mice, 50 μM 100 μl on day 1 and day 7
Method: The liver cancer tumor models are established by subcutaneously injecting H22 hepatoma cells. […] The further statistical analysis (see FIG. 6) confirms that as compared with the other two, AZT-QX has greater effectiveness p<0.01, and at a low dosage (0.13 mg/kg at a time, twice).
FIG. 6 illustrates the average growth of tumors in mice after administration and tumors in mice after 12 days, in which FIG. 6a is a figure of the average growth of tumors in mice; FIG. 6b is contrast of tumors in mice 12 days after different drug treatments. The control is a blank contrast, AZT is Zidovudine, AZT-QX is application of the compound of the invention.

[5] = system: hepatoma cells with hepatitis B; experiment: anti-BrdU fluorescence assay of nucleic acid synthesis, hepatoma cells; type: cell-based
Source text: as §5, §6

[6] = system: hepatoblastoma cell line HepG2; experiment: MTT cell viability assay, HepG2; type: cell-based, human; details: MTT after 72 hours
Method: as §1, §2, §3, §4

SMILES	BW ([3]; Day 1)	BW ([3]; Day 2)	BW ([3]; Day 3)	BW ([3]; Day 4)	BW ([3]; Day 5)	BW ([3]; Day 6)	BW ([3]; Day 7)	BW ([3]; Day 8)	BW ([3]; Day 9)	BW ([3]; Day 10)	BW ([3]; Day 11)	BW ([3]; Day 12)	volume (H22 liver cancer cells; Day 1, in mm³ (unit assumed))	volume (H22 liver cancer cells; Day 3, in mm³ (unit assumed))	volume (H22 liver cancer cells; Day 4, in mm³ (unit assumed))	volume (H22 liver cancer cells; Day 5, in mm³ (unit assumed))	volume (H22 liver cancer cells; Day 6, in mm³ (unit assumed))	volume (H22 liver cancer cells; Day 7, in mm³ (unit assumed))	nucleic acid synthesis in hepatoma cells (green fluorescence) [5]	toxicity to normal liver cells HL-7702 (in words) [1]	also measured
Cc1cn([C@H]2C[C@H](n3cc(CNC(=O)CCCCCOc4ccc5c(c4)-c4nc6ccccc6nc4[C@@H]4C(C)(C)CCC[C@]54C)nn3)[C@@H](CO)O2)c(=O)[nH]c1=O [AZT-QX, N-((1-(2-(hydroxymethyl)-5-(5-methyl-2,4-dioxo-3,4-dihydro-pyrimidin-1(2H)-yl)-tetrahydrofuran-3-yl)-1H-1,2,3-triazol-4-yl)methyl)-6-(4b,8,8-trimethyl-4-b,5,6,7,8,8a-hexahydrodibenzo[a,c]phenazin-2-yloxy)hexanamide]	30.7 and 35.4 and 26.9	31.7 and 36.3 and 27.7	32 and 36 and 27.6	32.5 and 37.1 and 28	32.4 and 32.9 and 28.2	32.2 and 37 and 28.1	32 and 36.3 and 27.9	33.2 and 36.6 and 28.7	33.5 and 36.6 and 28.8	34.1 and 36.7 and 28.7	34.5 and 36.8 and 29	35.8 and 37.9 and 29.5	256 and 288 and 500	500 and 405 and 288	500 and 364.5 and 405	665.5 and 364.5 and 445.5	936 and 405 and 550	907.5 and 500 and 550	effectively inhibits green fluorescence in hepatoma cells	–	toxicity to human normal liver cells HL-7702 (in words) ([1]; at 200 μM): no significant toxicity; nucleic acid synthesis in normal liver cells HL-7702 [2]: does not affect the nucleic acid synthesis; activity in combination with methotrexate ([4]; Hep3B cells, methotrexate added): additive effect; Hep3B cells killed ([4]; at 20 μM, MTT after 72 hours): 80%; activity after selective inhibition of thymidine kinase by siRNA ([4]; hepatoma cells with hepatitis B, thymidine kinase siRNA): decreased; volume (H22 liver cancer cells; Day 2): 364.5 and 288 (2×); volume (H22 liver cancer cells; Day 8, in mm³ (unit assumed)): 1080 and 500 and 600; volume (H22 liver cancer cells; Day 9, in mm³ (unit assumed)): 1080 and 665.5 and 666; volume (H22 liver cancer cells; Day 10, in mm³ (unit assumed)): 1080 and 786.5 and 726; volume (H22 liver cancer cells; Day 11, in mm³ (unit assumed)): 1267.5 and 847 and 726; volume (H22 liver cancer cells; Day 12, in mm³ (unit assumed)): 1267.5 and 1008 and 726; average tumor growth after 12 days (in words) (H22 liver cancer cells; injected intratumorally on day 1 and day 7, 100 μL): inhibits tumor growth
Cc1cn([C@H]2C[C@H](N=[N+]=[N-])[C@@H](CO)O2)c(=O)[nH]c1=O [Zidovudine]	26.9 and 29.9 and 31.9	26.8 and 31.5 and 32	26.8 and 31.5 and 31.8	27.2 and 31.4 and 33	27 and 31.3 and 32.7	27.4 and 31.3 and 33.8	26.9 and 31.5 and 33.5	26.6 and 32.7 and 34.1	27 and 33.3 and 34.2	27 and 34.5 and 34.4	27.7 and 36.6 and 35.1	28.8 and 37.4 and 35.9	220.5 and 364.5 and 405	320 and 665.5 and 600	650 and 726 and 786.5	486 and 936 and 786.5	1028.5 and 1183 and 1470	1149.5 and 1687.5 and 1568	no effect in inhibiting nucleic acid synthesis	no significant toxicity	toxicity to / killing of HepG2 cells (in words) [6]: no significant toxicity; toxicity to / killing of Hep3B cells (in words) ([4]; MTT after 72 hours): no significant toxicity; volume (H22 liver cancer cells; Day 2, in mm³ (unit assumed)): 245 and 550 and 405; volume (H22 liver cancer cells; Day 8, in mm³ (unit assumed)): 1368 and 3402 and 2560; volume (H22 liver cancer cells; Day 9, in mm³ (unit assumed)): 1368 and 3610 and 3240; volume (H22 liver cancer cells; Day 10, in mm³ (unit assumed)): 1368 and 3790.5 and 4851; volume (H22 liver cancer cells; Day 11, in mm³ (unit assumed)): 1440 and 4400 and 5071.5; volume (H22 liver cancer cells; Day 12, in mm³ (unit assumed)): 1960 and 5292 and 4851
COc1cccc2c1C(=O)c1c(O)c3c(c(O)c1C2=O)C[C@@](O)(C(=O)CO)C[C@@H]3O[C@H]1C[C@H](N)[C@H](O)[C@H](C)O1 [doxorubicin]	–	–	–	–	–	–	–	–	–	–	–	–	–	–	–	–	–	–	–	more severe than to hepatoma cells	–
CN1CCN(C(=O)Oc2ccc3c(c2)-c2nc4ccccc4nc2[C@@H]2C(C)(C)CCC[C@]32C)CC1 [pip-QX]	–	–	–	–	–	–	–	–	–	–	–	–	–	–	–	–	–	–	effect similar to AZT-QX	killed all the liver cell lines non-selectively	toxicity to / killing of HepG2 cells (in words) [6]: killed all the liver cell lines non-selectively; toxicity to / killing of Hep3B cells (in words) ([4]; MTT after 72 hours): killed all the liver cell lines non-selectively
